Measurements from patent publication US9695155B2, “Herbicidal substituted pyrimidinyloxy benzene compounds” (E. I. DU PONT DE NEMOURS AND COMPANY, priority 2013, dated 2017).

Legend:
kochia = experiment: Test D preemergence; type: in vivo, Kochia scoparia
Description: (§1) Seeds of plant species selected from bluegrass (annual bluegrass, Poa annua), blackgrass (Alopecurus myosuroides), canarygrass (littleseed canarygrass, Phalaris minor), chickweed (common chickweed, Stellaria media), galium (catchweed bedstraw, Galium aparine), bromegrass, downy (downy bromegrass, Bromus tectorum), field poppy (Papaver rhoeas), field violet (Viola arvensis), green foxtail (Setaria viridis), deadnettle (henbit deadnettle, Lamium amplexicaule), Italian ryegrass (Lolium multiflorum), kochia (Kochia scoparia), lambsquarters (Chenopodium album), oilseed rape (Brassica napus), pigweed (Amaranthus retroflexus), chamomile (scentless chamomile, Matricaria inodora), Russian thistle (Salsola kali), speedwell (bird's-eye speedwell, Veronica persica), spring barley (Hordeum vulgare), spring wheat (Triticum aestivum), wild buckwheat (Polygonum convolvulus), wild mustard (Sinapis arvensis), wild oat (Avena fatua), wild radish (Raphanus raphanistrum), windgrass (Apera spica-venti), winter barley (Hordeum vulgare), and winter wheat (Triticum aestivum) were planted into a silt loam soil and treated preemergence with test chemicals formulated in a non-phytotoxic solvent mixture which included a surfactant.
(§2) At the same time, these species were planted in pots containing Redi-Earth® planting medium (Scotts Company, 14111 Scottslawn Road, Marysville, Ohio 43041) comprising spaghnum peat moss, vermiculite, wetting agent and starter nutrients and treated with postemergence applications of the test chemicals formulated in the same manner. Plants ranged in height from 2 to 18 cm (1- to 4-leaf stage). Treated plants and controls were maintained in a controlled growth environment for 7 to 21 days after which time all species were compared to controls and visually evaluated. Plant response ratings, summarized in Table D, are based on a scale of 0 to 100 where 0 is no effect and 100 is complete control. A dash (-) response means no test result.

spring barley = experiment: Test D preemergence; type: in vivo, Hordeum vulgare
Description: as §1, §2

winter barley = experiment: Test D preemergence; type: in vivo, Hordeum vulgare
Description: as §1, §2

chickweed = experiment: Test D postemergence; type: in vivo, Stellaria media
Description: as §1, §2

pigweed = experiment: Test D preemergence; type: in vivo, Amaranthus retroflexus
Description: as §1, §2

galium = experiment: Test D preemergence; type: in vivo, Galium aparine
Description: as §1, §2

field poppy = experiment: Test D postemergence; type: in vivo, Papaver rhoeas
Description: as §1, §2

lambsquarters = experiment: Test D preemergence; type: in vivo, Chenopodium album
Description: as §1, §2

chamomile = experiment: Test D preemergence; type: in vivo, Matricaria inodora
Description: as §1, §2

[1] = 16 g ai/ha, scale 0 (no effect) to 100 (complete control)
[2] = 31 g ai/ha, scale 0 to 100 (0 no effect, 100 complete control)
[3] = 62 g ai/ha, scale 0 to 100 (0 no effect, 100 complete control)
[4] = 125 g ai/ha, scale 0 to 100 (0 no effect, 100 complete control)

SMILES: N#Cc1cccc(Oc2ncc(Cl)cn2)c1-n1cc(Br)cn1 [Compound 52, 2-(4-bromo-1H-pyrazol-1-yl)-3-[(5-chloro-2-pyrimidinyl)oxy]benzonitrile]
- pest or weed control at 31 g/ha (kochia; Bassia scoparia, pre-emergence, 31 g ai/ha, scale 0-100, read-out: Plant response rating, Kochia): 95%
- pest or weed control at 62 g/ha (kochia; Bassia scoparia, pre-emergence, 62 g ai/ha, scale 0-100, read-out: Plant response rating, Kochia): 95%
- pest or weed control at 125 g/ha (kochia; Bassia scoparia, pre-emergence, 125 g ai/ha, scale 0-100, read-out: Plant response rating, Kochia): 95%
- pest or weed control at 250 g/ha (kochia; Bassia scoparia, pre-emergence, 250 g ai/ha, scale 0-100, read-out: Plant response rating, Kochia): 95%
- plant injury at 31 g/ha (spring barley; Hordeum vulgare, pre-emergence, 31 g ai/ha, scale 0-100, read-out: Plant response rating, Barley, Spring): 5%
- plant injury at 62 g/ha (spring barley; Hordeum vulgare, pre-emergence, 62 g ai/ha, scale 0-100, read-out: Plant response rating, Barley, Spring): 10%
- plant injury at 125 g/ha (spring barley; Hordeum vulgare, pre-emergence, 125 g ai/ha, scale 0-100, read-out: Plant response rating, Barley, Spring): 10%
- plant injury at 250 g/ha (spring barley; Hordeum vulgare, pre-emergence, 250 g ai/ha, scale 0-100, read-out: Plant response rating, Barley, Spring): 50%
- plant injury at 31 g/ha (winter barley; Hordeum vulgare, pre-emergence, 31 g ai/ha, scale 0-100, read-out: Plant response rating, Barley, Winter): 0%
- plant injury at 62 g/ha (winter barley; Hordeum vulgare, pre-emergence, 62 g ai/ha, scale 0-100, read-out: Plant response rating, Barley, Winter): 0%
- plant injury at 125 g/ha (winter barley; Hordeum vulgare, pre-emergence, 125 g ai/ha, scale 0-100, read-out: Plant response rating, Barley, Winter): 5%
- plant injury at 250 g/ha (winter barley; Hordeum vulgare, pre-emergence, 250 g ai/ha, scale 0-100, read-out: Plant response rating, Barley, Winter): 35%
- pest or weed control at 31 g/ha (chickweed; Stellaria media, post-emergence, 31 g ai/ha, scale 0 to 100 (0 no effect, 100 complete control), read-out: Plant response rating, Chickweed): 60%
- pest or weed control at 62 g/ha (chickweed; Stellaria media, post-emergence, 62 g ai/ha, scale 0 to 100 (0 no effect, 100 complete control), read-out: Plant response rating, Chickweed): 70%
- pest or weed control at 125 g/ha (chickweed; Stellaria media, post-emergence, 125 g ai/ha, scale 0 to 100 (0 no effect, 100 complete control), read-out: Plant response rating, Chickweed): 85%
- pest or weed control at 250 g/ha (chickweed; Stellaria media, post-emergence, 250 g ai/ha, scale 0 to 100 (0 no effect, 100 complete control), read-out: Plant response rating, Chickweed): 90%
- pest or weed control at 31 g/ha (pigweed; Amaranthus retroflexus, pre-emergence, 31 g ai/ha, scale 0 (no effect) to 100 (complete control), read-out: Plant response rating, Pigweed): 100%
- pest or weed control at 62 g/ha (pigweed; Amaranthus retroflexus, pre-emergence, 62 g ai/ha, scale 0-100, read-out: Plant response rating, Pigweed): 100%
- pest or weed control at 125 g/ha (pigweed; Amaranthus retroflexus, pre-emergence, 125 g ai/ha, scale 0-100, read-out: Plant response rating, Pigweed): 100%
- pest or weed control at 250 g/ha (pigweed; Amaranthus retroflexus, pre-emergence, 250 g ai/ha, scale 0-100, read-out: Plant response rating, Pigweed): 100%
- pest or weed control at 31 g/ha (galium; Galium, pre-emergence, 31 g ai/ha, scale 0-100, read-out: Plant response rating, Galium): 10%
- pest or weed control at 62 g/ha (galium; Galium, pre-emergence, 62 g ai/ha, scale 0-100, read-out: Plant response rating, Galium): 20%
- pest or weed control at 125 g/ha (galium; Galium, pre-emergence, 125 g ai/ha, scale 0-100, read-out: Plant response rating, Galium): 75%
- pest or weed control at 250 g/ha (galium; Galium, pre-emergence, 250 g ai/ha, scale 0-100, read-out: Plant response rating, Galium): 70%
- pest or weed control at 31 g/ha (field poppy; Papaver rhoeas, post-emergence, 31 g ai/ha, scale 0 to 100 (0 no effect, 100 complete control), read-out: Plant response rating, Field Poppy): 60%
- pest or weed control at 62 g/ha (field poppy; Papaver rhoeas, post-emergence, 62 g ai/ha, scale 0 to 100 (0 no effect, 100 complete control), read-out: Plant response rating, Field Poppy): 75%
- pest or weed control at 125 g/ha (field poppy; Papaver rhoeas, post-emergence, 125 g ai/ha, scale 0 to 100 (0 no effect, 100 complete control), read-out: Plant response rating, Field Poppy): 80%
- pest or weed control at 250 g/ha (field poppy; Papaver rhoeas, post-emergence, 250 g ai/ha, scale 0 to 100 (0 no effect, 100 complete control), read-out: Plant response rating, Field Poppy): 100%
- pest or weed control at 31 g/ha (lambsquarters; Chenopodium album, pre-emergence, 31 g ai/ha, scale 0-100, read-out: Plant response rating, Lambsquarters): 80%
- pest or weed control at 62 g/ha (lambsquarters; Chenopodium album, pre-emergence, 62 g ai/ha, scale 0-100, read-out: Plant response rating, Lambsquarters): 100%
- pest or weed control at 125 g/ha (lambsquarters; Chenopodium album, pre-emergence, 125 g ai/ha, scale 0-100, read-out: Plant response rating, Lambsquarters): 100%
- pest or weed control at 250 g/ha (lambsquarters; Chenopodium album, pre-emergence, 250 g ai/ha, scale 0-100, read-out: Plant response rating, Lambsquarters): 100%
- pest or weed control at 31 g/ha (chamomile; Tripleurospermum inodorum, pre-emergence, 31 g ai/ha, scale 0-100, read-out: Plant response rating, Chamomile): 15%
- pest or weed control at 62 g/ha (chamomile; Tripleurospermum inodorum, pre-emergence, 62 g ai/ha, scale 0-100, read-out: Plant response rating, Chamomile): 65%
- pest or weed control at 125 g/ha (chamomile; Tripleurospermum inodorum, pre-emergence, 125 g ai/ha, scale 0-100, read-out: Plant response rating, Chamomile): 60%
- pest or weed control at 250 g/ha (chamomile; Tripleurospermum inodorum, pre-emergence, 250 g ai/ha, scale 0-100, read-out: Plant response rating, Chamomile): 80%

SMILES: FCc1cccc(Oc2ncc(Cl)cn2)c1-n1cc(I)cn1 [Compound 245]
- Plant response rating, Kochia (kochia; [1]): 0
- Plant response rating, Kochia (kochia; 31 g ai/ha, scale 0-100): 0
- Plant response rating, Kochia (kochia; 62 g ai/ha, scale 0-100): 75
- Plant response rating, Kochia (kochia; 125 g ai/ha, scale 0-100): 75
- Plant response rating, Barley, Spring (spring barley; [1]): 0
- Plant response rating, Barley, Spring (spring barley; 31 g ai/ha, scale 0-100): 5
- Plant response rating, Barley, Spring (spring barley; 62 g ai/ha, scale 0-100): 15
- Plant response rating, Barley, Spring (spring barley; 125 g ai/ha, scale 0-100): 35
- Plant response rating, Barley, Winter (winter barley; [1]): 0
- Plant response rating, Barley, Winter (winter barley; 31 g ai/ha, scale 0-100): 35
- Plant response rating, Barley, Winter (winter barley; 62 g ai/ha, scale 0-100): 25
- Plant response rating, Barley, Winter (winter barley; 125 g ai/ha, scale 0-100): 40
- Plant response rating, Chickweed (chickweed; 16 g ai/ha, scale 0-100): 45
- Plant response rating, Chickweed (chickweed; [2]): 75
- Plant response rating, Chickweed (chickweed; [3]): 95
- Plant response rating, Chickweed (chickweed; [4]): 98
- Plant response rating, Pigweed (pigweed; [1]): 98
- Plant response rating, Pigweed (pigweed; 31 g ai/ha, scale 0 (no effect) to 100 (complete control)): 100
- Plant response rating, Pigweed (pigweed; 125 g ai/ha, scale 0-100): 100
- Plant response rating, Galium (galium; [1]): 0
- Plant response rating, Galium (galium; 31 g ai/ha, scale 0-100): 0
- Plant response rating, Galium (galium; 62 g ai/ha, scale 0-100): 5
- Plant response rating, Galium (galium; 125 g ai/ha, scale 0-100): 85
- Plant response rating, Field Poppy (field poppy; 16 g ai/ha, scale 0-100): 90
- Plant response rating, Field Poppy (field poppy; [2]): 95
- Plant response rating, Field Poppy (field poppy; [3]): 80
- Plant response rating, Field Poppy (field poppy; [4]): 100
- Plant response rating, Lambsquarters (lambsquarters; [1]): 85
- Plant response rating, Lambsquarters (lambsquarters; 31 g ai/ha, scale 0-100): 100
- Plant response rating, Lambsquarters (lambsquarters; 62 g ai/ha, scale 0-100): 100
- Plant response rating, Lambsquarters (lambsquarters; 125 g ai/ha, scale 0-100): 100
- Plant response rating, Chamomile (chamomile; [1]): 25
- Plant response rating, Chamomile (chamomile; 31 g ai/ha, scale 0-100): 30
- Plant response rating, Chamomile (chamomile; 62 g ai/ha, scale 0-100): 55
- Plant response rating, Chamomile (chamomile; 125 g ai/ha, scale 0-100): 100
